Test results reported in ChEMBL document CHEMBL3243978, “2-(Substituted phenyl)oxazolo[4,5-b]pyridines and 2-(substituted phenyl)oxazolo[5,4-b]pyridines as nonacidic antiinflammatory agents” (J Med Chem, 1978).
Values after ≈ are worked out from the molar mass of the structure shown.

What was measured:
[1] = biological target: T1, Prostaglandin E synthase (Homo sapiens) (UniProt O14684)
T1 sequence (whole entry): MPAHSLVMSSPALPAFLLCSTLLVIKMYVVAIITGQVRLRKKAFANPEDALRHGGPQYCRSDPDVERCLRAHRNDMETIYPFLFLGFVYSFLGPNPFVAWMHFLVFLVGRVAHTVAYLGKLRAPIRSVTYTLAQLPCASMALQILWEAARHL
Description: Inhibition of prostaglandin synthetase (unknown origin)

Rattus norvegicus [2] = organism: Rattus norvegicus; experiment: Antiarthritic activity in rat assessed as reduction in adjuvant-induced arthritic pain; format: functional
Rattus norvegicus [3] = experiment: Antiinflammatory activity in rat assessed as inhibition of carrageenan-induced foot edema; format: functional
[4] = Acute toxicity in po dosed mouse; conditions: in vivo
Rattus norvegicus [5] = organism: Rattus norvegicus; experiment: animal or person; format: functional
Description: Antiinflammatory activity in rat assessed as inhibition of carrageenan-induced foot edema at 30 mg/kg

Rattus norvegicus [6] = experiment: Toxicity in rat assessed as indomethacin-induced intestinal perforation at 256 mg/kg after 3 days; format: organism-based; set-up: dose 256 mg/kg; conditions: in vivo, 72 h
Rattus norvegicus [7] = experiment: Toxicity in rat assessed as indomethacin-induced intestinal perforation at 400 mg/kg after 3 days; format: organism-based; set-up: dose 400 mg/kg; conditions: in vivo, 72 h
Rattus norvegicus [8] = experiment: Toxicity in rat assessed as indomethacin-induced intestinal perforation at 1024 mg/kg after 3 days; format: organism-based; set-up: dose 1024 mg/kg; conditions: in vivo, 72 h

SMILES | inhibition in vivo at 30 mg/kg (Rattus norvegicus [5]) | also measured
COc1ccc2c(c1)c(CC(=O)O)c(C)n2C(=O)c1ccc(Cl)cc1 [INDOMETHACIN] |  | ED50 [1]: 0.1 µg/mL (≈ 0.279 µM); ED50 (Rattus norvegicus [2]): 0.27 mg/kg; ED50 (Rattus norvegicus [3]): 2.7 mg/kg; ED50 (Mus musculus): 2.7 mg; LD50 [4]: 50 mg/kg
N#Cc1cccc(C#N)c1-c1nc2ncccc2o1 | 19% | 
CSc1ccccc1-c1nc2ncccc2o1 | 21% | 
COc1ccc(Br)c(-c2nc3ncccc3o2)c1 | 8% | 
N#Cc1ccccc1-c1nc2ncccc2o1 | 62% | ED50 [1]: 14 µg/mL (≈ 63.3 µM); ED50 (Rattus norvegicus [2]): 20 mg/kg; ED50 (Rattus norvegicus [3]): 17 mg/kg; ED50 (Mus musculus): 2 mg; LD50 [4]: 1220 mg/kg
Fc1ccc(-c2nc3ncccc3o2)cc1 | 28% | 
O=[N+]([O-])c1cccc(-c2nc3ncccc3o2)c1 | 21% | 
FC(F)(F)Oc1ccc(-c2nc3ncccc3o2)cc1 | 0% | 
Nc1ccccc1-c1nc2cccnc2o1 | 13% | 
c1ccc(-c2nc3ncccc3o2)cc1 | 41% | 
Brc1ccccc1-c1nc2cccnc2o1 | 31% | 
FC(F)(F)c1ccccc1-c1nc2ncccc2o1 | 19% | 
CC(C)Cc1ccc(C(C)C(=O)O)cc1 (stereo unspecified) [IBUPROFEN] |  | ED50 [1]: 0.4 µg/mL (≈ 1.94 µM); ED50 (Rattus norvegicus [2]): 27 mg/kg; ED50 (Rattus norvegicus [3]): 15 mg/kg; ED50 (Mus musculus): 5 mg; LD50 [4]: 1370 mg/kg
O=[N+]([O-])c1ccccc1-c1nc2cccnc2o1 | 57% | 
COc1ccc(-c2nc3ncccc3o2)cc1 | 14% | 
COc1ccccc1-c1nc2ncccc2o1 | 9% | 
Fc1cccc(-c2nc3cccnc3o2)c1 | 35% | 
COc1ccc(-c2nc3cccnc3o2)cc1 | 29% | 
Fc1ccccc1-c1nc2ncccc2o1 | 64% | ED50 [1]: 3 µg/mL (≈ 14 µM); ED50 (Rattus norvegicus [2]): 23 mg/kg; ED50 (Rattus norvegicus [3]): 21 mg/kg; Activity (Rattus norvegicus [6]): Non-toxic; ED50 (Mus musculus): 6 mg; LD50 [4]: 556 mg/kg
N#Cc1ccccc1-c1nc2cccnc2o1 | 61% | ED50 [1]: 16 µg/mL (≈ 72.3 µM); ED50 (Rattus norvegicus [2]): 44 mg/kg; ED50 (Rattus norvegicus [3]): 11 mg/kg; Activity (Rattus norvegicus [6]): Non-toxic; ED50 (Mus musculus): 3 mg; LD50 [4]: 1500 mg/kg
O=[N+]([O-])c1ccc(-c2nc3cccnc3o2)cc1 | 5% | 
Fc1cccc(F)c1-c1nc2cccnc2o1 | 50% | 
COc1ccc(C#N)c(-c2nc3ncccc3o2)c1 | 3% | 
Brc1ccccc1-c1nc2ncccc2o1 | 24% | 
Cc1ccc(-c2nc3ncccc3o2)cc1 | 5% | 
COc1cccc(-c2nc3cccnc3o2)c1 | 0% | 

SMILES | inhibition in vivo at 30 mg/kg (Rattus norvegicus [5]) | also measured
Cc1ccccc1-c1nc2cccnc2o1 | 3% | 
Clc1ccc(-c2nc3cccnc3o2)cc1 | 14% | 
Clc1ccccc1-c1nc2cccnc2o1 | 50% | 
Cc1ccccc1-c1nc2ncccc2o1 | 0% | 
Clc1cccc(Cl)c1-c1nc2ncccc2o1 | 14% | 
Brc1cccc(-c2nc3ncccc3o2)c1 | 23% | 
COc1cccc(-c2nc3ncccc3o2)c1 | 14% | 
CCCCC1C(=O)N(c2ccccc2)N(c2ccccc2)C1=O [PHENYLBUTAZONE] |  | ED50 [1]: 3 µg/mL (≈ 9.73 µM); ED50 (Rattus norvegicus [2]): 14 mg/kg; ED50 (Rattus norvegicus [3]): 28 mg/kg; Activity (Rattus norvegicus [7]): Non-toxic; ED50 (Mus musculus): 4.3 mg; LD50 [4]: 555 mg/kg
Cc1ccc(-c2nc3cccnc3o2)cc1 | 0% | 
Clc1ccc(-c2nc3ncccc3o2)cc1 | 24% | 
N#Cc1cccc(-c2nc3ncccc3o2)c1 | 21% | 
FC(F)(F)c1cccc(-c2nc3cccnc3o2)c1 | 7% | 
Clc1cccc(-c2nc3cccnc3o2)c1 | 8% | 
CC(=O)Oc1ccccc1C(=O)O [ASPIRIN] |  | ED50 [1]: 13.4 µg/mL (≈ 74.4 µM); ED50 (Rattus norvegicus [2]): 67 mg/kg; Activity (Rattus norvegicus [8]): Non-toxic; ED50 (Rattus norvegicus [3]): 89 mg/kg; ED50 (Mus musculus): 7 mg; LD50 [4]: 1220 mg/kg
Clc1ccccc1-c1nc2ncccc2o1 | 38% | 
Fc1cc(Cl)ccc1-c1nc2ncccc2o1 | 19% | 
Fc1ccc(F)c(-c2nc3ncccc3o2)c1 | 18% | 
Clc1cccc(-c2nc3ncccc3o2)c1 | 32% | 
Fc1cccc(F)c1-c1nc2ncccc2o1 | 66% | ED50 [1]: 15 µg/mL (≈ 64.6 µM); ED50 (Rattus norvegicus [2]): 7.4 mg/kg; ED50 (Rattus norvegicus [3]): 22 mg/kg; ED50 (Mus musculus): 2.4 mg; LD50 [4]: 709 mg/kg
Fc1ccc(-c2nc3cccnc3o2)cc1 | 27% | 
N#Cc1ccc(-c2nc3cccnc3o2)cc1 | 17% | 
c1ccc(-c2nc3cccnc3o2)cc1 | 55% | 
Cc1cccc(-c2nc3cccnc3o2)c1 | 14% | 
Fc1ccc(-c2nc3ncccc3o2)c(F)c1 | 23% | 
N#Cc1cccc(F)c1-c1nc2ncccc2o1 | 50% | 
